Values quoted from earlier work, collected in patent US20170296666A1, “Stable Pharmaceutical Composition Of Amorphous Ticagrelor” (Amneal Pharmaceuticals Company GmbH, priority 2016, published 2017).

Settings: class IV = low solubility and low permeability

Biopharmaceutics Classification System (BCS) class: class IV
Compound: CCCSc1nc(N[C@@H]2C[C@H]2c2ccc(F)c(F)c2)c2nnn([C@@H]3C[C@H](OCCO)[C@@H](O)[C@H]3O)c2n1 [Ticagrelor, (1S,2S,3R,5S)-3-[7-{[(1/R,2S)-2-(3,4-difluorophenyl)cyclopropyl]amino}-5 (propylthio)-3H-[1,2,3]-triazolo[4,5-d]pyrimidin-3-yl]-5-(2-hydroxyethoxy) cyclopentane-1,2-diol]
